Here are results for one molecule from publication PMC10945555, “Improving Activity of New Arylurea Agents against Multidrug-Resistant and Biofilm-Producing Staphylococcus epidermidis” (ACS Medicinal Chemistry Letters, 2024).

For this assay, the system named is Staphylococcus epidermidis clinical strain no. 23. Description: Cell membrane potential, DiOC2 flow cytometry. The format is cell-based. The note with it: 4 × MIC, within 15 min; MSSE, S. epidermidis clinical strain no. 23, S. aureus Newman. The source says: 23, and S. aureus Newman (reference strain without known antibiotic resistance determinants). Bacterial strains were stained with 3,3′-diethyloxacarbocyanine iodide (DiOC2) and then treated with the tested compound 25, with carbonyl cyanide 3-chlorophenylhydrazone (CCCP) used as a positive control. Daptomycin was used as a reference compound that causes depolarization of bacterial cell membranes.[22]
(reduction of navy blue resazurin to pink resorufin in the presence of metabolically active cells) compared to the negative (sterile medium without bacteria and compounds) and positive control (medium with bacteria).9 The minimal biofilm eradication concentration value was analyzed using a high throughput screening the MBEC Assay® Kit (Innovotech, Canada), formerly the Calgary Biofilm Device, according to the manufacturer's insert.10 […]
determining MBC (Minimal Bactericidal Concentration) values. […] Then, the value of the MBC/MIC ratio was calculated to assess its bactericidal or bacteriostatic activity. […]
using the BacLight™ Bacterial Membrane Potential Kit (Molecular Probes, Invitrogen, Carlsbad, CA, USA).15 Analysis of the cells was tested in an LSR II flow cytometer (BD Biosciences Immunocytometry Systems, San Jose, CA, USA) equipped with blue, red and violet lasers, using 488 nm excitation for green (530/30 BP filter, 505 LP) and red (610/20 BP, 600 LP) fluorescence. […]
Background: A flow cytometer gives signals particle by particle.

In the case of `O=C(Nc1cccc(Cl)c1)NC1CCN(CCC(Oc2ccc(C(F)(F)F)cc2)c2cccs2)CC1` (stereo not shown) [Compound 25], the membrane depolarization entry is “depolarization in nearly all bacterial cells”.
